Literature values in US20060216726A1, “Method for optimizing thiopurine efficacy and toxicity using mass spectrometry” (Prometheus Laboratories Inc., priority 2004, published 2006).

Conditions: patients with inflammatory bowel disease, azathioprine

## 6-thioguanine nucleotide [6-TGN]
  Therapeutic threshold associated with efficacy: > 235 pmol/8×10^8 cells
